Earlier results on one compound are cited in patent US20250101519A1, “USE OF HYPOXIA-INDUCIBLE FACTOR 1 ALPHA AS MARKER IN DEPRESSION RECURRENCE DIAGNOSIS” (NINGBO UNIVERSITY, priority 2022, published 2025).

For data set [1] the following is noted: in humans.
The conditions of data set [2]: in mice; other references report various values.

Consider `CNCCC(Oc1ccc(C(F)(F)F)cc1)c1ccccc1` (centres unmarked) [fluoxetine], for which the metabolic clearance half-life in data set [1] is 96 to 140 h. In data set [2], the clearance half-life is 9 h.
